Laboratory results from article PMC5218480 (PLoS ONE, 2017).

Tested on: MV-4-11 cells
Assay: Gene expression microarray analysis (Affymetrix PrimeView) and GSEA
Type: cell-based, human
Design: RFU PODN (11730768_x_at) / Fold change /veh PODN (11730768_x_at) / RFU LINC00158 (11744669_a_at) / Fold change /veh LINC00158 (11744669_a_at) / RFU DUSP10 (11751237_a_at) / Fold change /veh DUSP10 (11751237_a_at) / RFU ID3 (11757404_x_at) / Fold change /veh ID3 (11757404_x_at) / RFU PLEKHG5 (11737974_s_at) / Fold change /veh PLEKHG5 (11737974_s_at) / RFU LRRC4B (11730491_at) / Fold change /veh LRRC4B (11730491_at) / RFU GIMAP4 (11747438_a_at) / Fold change /veh GIMAP4 (11747438_a_at) / RFU KRT8 (11758183_x_at) / Fold change /veh KRT8 (11758183_x_at) / RFU CNN1 (11734310_a_at) / Fold change /veh CNN1 (11734310_a_at) / RFU VPS37D (11726825_at) / Fold change /veh VPS37D (11726825_at) / RFU C10orf10 (11716522_x_at) / Fold change /veh C10orf10 (11716522_x_at) / RFU KIR2DL2 /// KIR2DL4 /// KIR2DL5A /// KIR2DL5B /// KIR2DS1 /// KIR2DS2 /// KIR2DS3 /// KIR2DS4 /// KIR3DL3 /// KIR3DL3 /// KIR3DS1 (11738374_at) / Fold change /veh KIR2DL2 /// KIR2DL4 /// KIR2DL5A /// KIR2DL5B /// KIR2DS1 /// KIR2DS2 /// KIR2DS3 /// KIR2DS4 /// KIR3DL3 /// KIR3DL3 /// KIR3DS1 (11738374_at) / RFU C1QL1 (11718748_at) / Fold change /veh C1QL1 (11718748_at) / RFU TMPRSS4 (11747572_a_at) / Fold change /veh TMPRSS4 (11747572_a_at) / RFU HAMP (11756126_x_at) / Fold change /veh HAMP (11756126_x_at) / RFU RNFT2 (11725882_a_at) / Fold change /veh RNFT2 (11725882_a_at) / RFU NR4A2 (11747474_a_at) / Fold change /veh NR4A2 (11747474_a_at) / RFU ABCC12 (11746883_a_at) / Fold change /veh ABCC12 (11746883_a_at) / RFU TMEM136 (11760407_x_at) / Fold change /veh TMEM136 (11760407_x_at) / RFU CLDN22 /// WWC2 (11732394_at) / Fold change /veh CLDN22 /// WWC2 (11732394_at) / RFU HLA-DPB1 (11760878_x_at) / Fold change /veh HLA-DPB1 (11760878_x_at) / RFU SPINT1 (11716480_a_at) / Fold change /veh SPINT1 (11716480_a_at) / RFU GAP43 (11754022_s_at) / Fold change /veh GAP43 (11754022_s_at) / RFU A4GNT (11735810_at) / Fold change /veh A4GNT (11735810_at) / RFU PRB3 (11715151_x_at) / Fold change /veh PRB3 (11715151_x_at) / RFU TUBB4B (11761932_at) / Fold change /veh TUBB4B (11761932_at) / RFU CAPN14 (11732068_a_at) / Fold change /veh CAPN14 (11732068_a_at) / RFU TMCC2 (11721928_a_at) / Fold change /veh TMCC2 (11721928_a_at) / RFU IRGQ (11745062_a_at) / Fold change /veh IRGQ (11745062_a_at) / RFU FAM174B (11720279_a_at) / Fold change /veh FAM174B (11720279_a_at) / RFU TMPRSS4 (11748680_a_at) / Fold change /veh TMPRSS4 (11748680_a_at) / RFU FAM212B (11763350_a_at) / Fold change /veh FAM212B (11763350_a_at) / RFU PLEKHG5 (11743358_a_at) / Fold change /veh PLEKHG5 (11743358_a_at) / RFU ZSCAN30 (11745921_a_at) / Fold change /veh ZSCAN30 (11745921_a_at) / RFU CMKLR1 (11741424_a_at) / Fold change /veh CMKLR1 (11741424_a_at) / RFU LOC101060620 /// MAPK8IP1 (11723275_at) / Fold change /veh LOC101060620 /// MAPK8IP1 (11723275_at) / RFU SPTSSB (11747773_x_at) / Fold change /veh SPTSSB (11747773_x_at) / RFU PRSS12 (11739890_at) / Fold change /veh PRSS12 (11739890_at) / RFU BIN1 (11741810_x_at) / Fold change /veh BIN1 (11741810_x_at) / RFU WNT11 (11732464_a_at) / Fold change /veh WNT11 (11732464_a_at) / RFU C10orf10 (11716521_a_at) / Fold change /veh C10orf10 (11716521_a_at) / RFU C5orf56 (11738089_at) / Fold change /veh C5orf56 (11738089_at) / RFU CYB561 (11721691_x_at) / Fold change /veh CYB561 (11721691_x_at) / RFU ANKRD19P (11752326_a_at) / Fold change /veh ANKRD19P (11752326_a_at) / RFU OR2T12 /// OR2T33 /// OR2T8 (11738714_s_at) / Fold change /veh OR2T12 /// OR2T33 /// OR2T8 (11738714_s_at) / RFU VCAN (11748164_a_at) / Fold change /veh VCAN (11748164_a_at) / RFU JSRP1 (11732532_at) / Fold change /veh JSRP1 (11732532_at) / RFU KRTAP10-11 (11738290_x_at) / Fold change /veh KRTAP10-11 (11738290_x_at) / RFU MYO3A (11730013_a_at) / Fold change /veh MYO3A (11730013_a_at) / RFU EBF3 (11725865_a_at) / Fold change /veh EBF3 (11725865_a_at) / RFU CAMK2N1 (11719241_x_at) / Fold change /veh CAMK2N1 (11719241_x_at) / RFU C5orf56 (11738088_a_at) / Fold change /veh C5orf56 (11738088_a_at) / RFU OLFML3 (11715873_a_at) / Fold change /veh OLFML3 (11715873_a_at) / RFU LOC100653217 /// NTM (11731650_a_at) / Fold change /veh LOC100653217 /// NTM (11731650_a_at) / RFU MAPK11 (11762145_a_at) / Fold change /veh MAPK11 (11762145_a_at) / RFU FIZ1 (11724087_x_at) / Fold change /veh FIZ1 (11724087_x_at) / RFU OASL (11726364_x_at) / Fold change /veh OASL (11726364_x_at) / RFU SOX15 (11748057_x_at) / Fold change /veh SOX15 (11748057_x_at) / RFU CD79A (11719716_a_at) / Fold change /veh CD79A (11719716_a_at) / RFU HIST1H1D (11736915_at) / Fold change /veh HIST1H1D (11736915_at) / RFU CASKIN2 (11723855_a_at) / Fold change /veh CASKIN2 (11723855_a_at) / RFU LOC730098 (11760151_x_at) / Fold change /veh LOC730098 (11760151_x_at) / RFU OR4N2 (11742367_at) / Fold change /veh OR4N2 (11742367_at) / RFU PRRT2 (11749266_a_at) / Fold change /veh PRRT2 (11749266_a_at) / RFU SNX32 (11753110_a_at) / Fold change /veh SNX32 (11753110_a_at) / RFU CDHR5 (11726645_a_at) / Fold change /veh CDHR5 (11726645_a_at) / RFU RCAN1 (11760418_a_at) / Fold change /veh RCAN1 (11760418_a_at) / RFU FAM167A (11723789_a_at) / Fold change /veh FAM167A (11723789_a_at) / RFU FAM26E (11764081_at) / Fold change /veh FAM26E (11764081_at) / RFU ISYNA1 (11749810_s_at) / Fold change /veh ISYNA1 (11749810_s_at) / RFU ACY1 (11761880_at) / Fold change /veh ACY1 (11761880_at) / RFU 11764098_at / Fold change /veh 11764098_at / RFU SAMD14 (11745864_x_at) / Fold change /veh SAMD14 (11745864_x_at) / RFU NPB (11741838_a_at) / Fold change /veh NPB (11741838_a_at) / RFU TMPRSS6 (11731388_a_at) / Fold change /veh TMPRSS6 (11731388_a_at) / RFU KRTAP10-2 (11738614_at) / Fold change /veh KRTAP10-2 (11738614_at) / RFU ARHGAP8 /// PRR5-ARHGAP8 (11727945_x_at) / Fold change /veh ARHGAP8 /// PRR5-ARHGAP8 (11727945_x_at) / RFU KRTAP5-7 /// NADSYN1 (11734609_at) / Fold change /veh KRTAP5-7 /// NADSYN1 (11734609_at) / RFU RASL12 (11751679_a_at) / Fold change /veh RASL12 (11751679_a_at) / RFU CDKN2B (11736163_a_at) / Fold change /veh CDKN2B (11736163_a_at) / RFU PRF1 (11729649_at) / Fold change /veh PRF1 (11729649_at) / RFU, ZNF638 /// ZNF638-IT1 / Fold change vs veh, ZNF638 /// ZNF638-IT1 / RFU, PANK3 / Fold change vs veh, PANK3 / RFU, SH3YL1 / Fold change vs veh, SH3YL1 / RFU, ZEB2 / Fold change vs veh, ZEB2 / RFU, NRIP1 / Fold change vs veh, NRIP1 / RFU, PTTG1IP / Fold change vs veh, PTTG1IP / RFU, CAPN2 / Fold change vs veh, CAPN2 / RFU, MED14 / Fold change vs veh, MED14 / RFU, SNORA58 / Fold change vs veh, SNORA58 / RFU, C1orf63 / Fold change vs veh, C1orf63 / RFU, LRRFIP1 / Fold change vs veh, LRRFIP1 / RFU, NDUFAF7 / Fold change vs veh, NDUFAF7 / RFU, SLC12A2 / Fold change vs veh, SLC12A2 / RFU, IBTK / Fold change vs veh, IBTK / RFU, ESF1 / Fold change vs veh, ESF1 / Fold change vs veh, TMEM50B / RFU, TAOK1 / Fold change vs veh, TAOK1 / RFU, ACBD3 / Fold change vs veh, ACBD3 / RFU, TMA16 / Fold change vs veh, TMA16 / RFU, RWDD3 / Fold change vs veh, RWDD3 / RFU, BCAT1 / Fold change vs veh, BCAT1 / RFU, EDEM3 / Fold change vs veh, EDEM3 / RFU, TMEM33 / Fold change vs veh, TMEM33 / RFU, WDR75 / Fold change vs veh, WDR75 / RFU, AHCTF1 / Fold change vs veh, AHCTF1 / RFU, TFRC / Fold change vs veh, TFRC / RFU, ZDHHC17 / Fold change vs veh, ZDHHC17 / RFU, NOM1 / Fold change vs veh, NOM1 / RFU, ARL8B / Fold change vs veh, ARL8B / RFU, ZBTB11 / Fold change vs veh, ZBTB11 / RFU, TAMM41 / Fold change vs veh, TAMM41 / RFU, KIAA1704 /// LOC100996395 / Fold change vs veh, KIAA1704 /// LOC100996395 / RFU, ING1 / Fold change vs veh, ING1 / RFU, TRMT61B / Fold change vs veh, TRMT61B / RFU, FUBP3 / Fold change vs veh, FUBP3 / RFU, TP53 / Fold change vs veh, TP53 / RFU, TNKS2 / Fold change vs veh, TNKS2 / RFU, ZFP14 / Fold change vs veh, ZFP14 / RFU, ACTR2 / Fold change vs veh, ACTR2 / RFU, PPP3R1 / Fold change vs veh, PPP3R1 / RFU, PIK3R1 / Fold change vs veh, PIK3R1 / RFU, HNRNPA1 / Fold change vs veh, HNRNPA1 / RFU, RNF170 / Fold change vs veh, RNF170 / RFU, ZNF28 / Fold change vs veh, ZNF28 / RFU, RNGTT / Fold change vs veh, RNGTT / RFU, OGT / Fold change vs veh, OGT / RFU, BRD1 / Fold change vs veh, BRD1 / RFU, MARS / Fold change vs veh, MARS / RFU, ZNF655 / Fold change vs veh, ZNF655 / RFU, FAHD1 / Fold change vs veh, FAHD1 / RFU, BDP1 / Fold change vs veh, BDP1 / RFU, LRRCC1 / Fold change vs veh, LRRCC1 / RFU, ARID1A / Fold change vs veh, ARID1A / RFU, ZNF146 / Fold change vs veh, ZNF146 / RFU, ZNF330 / Fold change vs veh, ZNF330 / RFU, GPN3 / Fold change vs veh, GPN3 / RFU, C9orf123 / Fold change vs veh, C9orf123 / RFU, N4BP2L2 / Fold change vs veh, N4BP2L2 / RFU, ARFIP1 / Fold change vs veh, ARFIP1 / RFU, FAM179B / Fold change vs veh, FAM179B / RFU, BCL10 / Fold change vs veh, BCL10 / RFU, UHRF1BP1L / Fold change vs veh, UHRF1BP1L / RFU, BET1 / Fold change vs veh, BET1 / RFU, CNOT2 / Fold change vs veh, CNOT2 / RFU, ZNF268 / Fold change vs veh, ZNF268 / Fold change vs veh, ZNF507 / RFU, DGCR2 / Fold change vs veh, DGCR2 / RFU, WDSUB1 / Fold change vs veh, WDSUB1 / Fold change vs veh, HSP90B1 /// MIR3652 / RFU, ADSS / Fold change vs veh, ADSS / RFU, GK / Fold change vs veh, GK / RFU, ZNF148 / Fold change vs veh, ZNF148 / RFU, TAF9 / Fold change vs veh, TAF9 / RFU, SLC1A5 / Fold change vs veh, SLC1A5 / RFU, SLMO2 / Fold change vs veh, SLMO2 / RFU, ABCC4 / Fold change vs veh, ABCC4 / RFU, LOC101060439 /// RAP1B / Fold change vs veh, LOC101060439 /// RAP1B / RFU, RFX7 / Fold change vs veh, RFX7 / RFU, GTPBP10 / Fold change vs veh, GTPBP10 / RFU, CNEP1R1 / Fold change vs veh, CNEP1R1 / RFU, BIVM-ERCC5 /// ERCC5 / Fold change vs veh, BIVM-ERCC5 /// ERCC5 / RFU, ILF3 / Fold change vs veh, ILF3 / RFU 11762660_at / Fold change /veh 11762660_at / RFU VCAN (11757783_s_at) / Fold change /veh VCAN (11757783_s_at) / RFU DDX43 (11728927_at) / Fold change /veh DDX43 (11728927_at) / RFU KRT8 (11758188_x_at) / Fold change /veh KRT8 (11758188_x_at) / RFU NKD1 (11759106_at) / Fold change /veh NKD1 (11759106_at) / RFU SRD5A1 (11742802_a_at) / Fold change /veh SRD5A1 (11742802_a_at) / RFU TPSAB1 /// TPSB2 (11721975_s_at) / Fold change /veh TPSAB1 /// TPSB2 (11721975_s_at) / RFU GSTM3 (11746129_a_at) / Fold change /veh GSTM3 (11746129_a_at) / RFU IL23R (11737362_x_at) / Fold change /veh IL23R (11737362_x_at) / RFU TMEM51 (11727254_a_at) / Fold change /veh TMEM51 (11727254_a_at) / RFU PIWIL2 (11732686_x_at) / Fold change /veh PIWIL2 (11732686_x_at) / RFU ORM1 (11744905_x_at) / Fold change /veh ORM1 (11744905_x_at) / RFU CCDC152 (11743942_at) / Fold change /veh CCDC152 (11743942_at) / RFU ECM1 (11717891_a_at) / Fold change /veh ECM1 (11717891_a_at) / RFU IL23R (11748794_a_at) / Fold change /veh IL23R (11748794_a_at) / RFU TNFAIP8L3 (11732012_x_at) / Fold change /veh TNFAIP8L3 (11732012_x_at) / RFU MBOAT4 (11741988_at) / Fold change /veh MBOAT4 (11741988_at) / RFU 11764193_at / Fold change /veh 11764193_at / RFU TMEM53 (11763286_at) / Fold change /veh TMEM53 (11763286_at) / RFU MAGEB2 (11727129_at) / Fold change /veh MAGEB2 (11727129_at) / RFU TMEM200A (11744735_a_at) / Fold change /veh TMEM200A (11744735_a_at) / RFU CCDC152 (11751479_a_at) / Fold change /veh CCDC152 (11751479_a_at) / RFU FAM211A (11726209_a_at) / Fold change /veh FAM211A (11726209_a_at) / RFU RGS16 (11746705_a_at) / Fold change /veh RGS16 (11746705_a_at) / RFU VCAN (11755009_s_at) / Fold change /veh VCAN (11755009_s_at) / RFU RHOB (11743442_s_at) / Fold change /veh RHOB (11743442_s_at) / RFU RGS16 (11720943_a_at) / Fold change /veh RGS16 (11720943_a_at) / RFU RGS16 (11720944_at) / Fold change /veh RGS16 (11720944_at) / RFU, VPS4B / Fold change vs veh, VPS4B / RFU, CREB1 / Fold change vs veh, CREB1 / RFU, DNAJC13 / Fold change vs veh, DNAJC13 / RFU, GNAQ / Fold change vs veh, GNAQ / RFU, CDK5R1 / Fold change vs veh, CDK5R1 / RFU, ZRANB3 / Fold change vs veh, ZRANB3 / RFU, CUL4A / Fold change vs veh, CUL4A / RFU, CCNY / Fold change vs veh, CCNY / RFU, UFL1 / Fold change vs veh, UFL1 / RFU, COG3 / Fold change vs veh, COG3 / RFU, DIAPH2 / Fold change vs veh, DIAPH2 / RFU, SKA2 / Fold change vs veh, SKA2 / RFU, AFF3 / Fold change vs veh, AFF3 / RFU, LMF1 / Fold change vs veh, LMF1 / RFU, IPO11 / Fold change vs veh, IPO11 / RFU, DFFB / Fold change vs veh, DFFB / RFU, FOXP1 / Fold change vs veh, FOXP1 / RFU, CARD8 / Fold change vs veh, CARD8 / RFU, STRN3 / Fold change vs veh, STRN3 / RFU, ADK / Fold change vs veh, ADK / RFU, RASSF2 / Fold change vs veh, RASSF2 / RFU, WIPF1 / Fold change vs veh, WIPF1 / RFU, LARP1B / Fold change vs veh, LARP1B / RFU, RASA1 / Fold change vs veh, RASA1 / RFU, RB1 / Fold change vs veh, RB1 / RFU, PPFIA1 / Fold change vs veh, PPFIA1 / RFU, MAT2A / Fold change vs veh, MAT2A / RFU, CCT5 / Fold change vs veh, CCT5 / RFU, WDR92 / Fold change vs veh, WDR92 / RFU, CUX1 / Fold change vs veh, CUX1 / RFU, TTC7A / Fold change vs veh, TTC7A / RFU, TMEM135 / Fold change vs veh, TMEM135 / RFU, DEPTOR / Fold change vs veh, DEPTOR / RFU, CPM / Fold change vs veh, CPM / RFU, DNAJB6 / Fold change vs veh, DNAJB6 / RFU, CACNA2D3 / Fold change vs veh, CACNA2D3 / RFU, DTX4 / Fold change vs veh, DTX4 / RFU, TFCP2 / Fold change vs veh, TFCP2 / RFU, GMCL1 /// GMCL1P1 / Fold change vs veh, GMCL1 /// GMCL1P1 / RFU, AEBP2 / Fold change vs veh, AEBP2 / RFU, SNHG1 /// SNORD22 /// SNORD25 /// SNORD26 /// SNORD27 /// SNORD28 /// SNORD29 /// SNORD31 / Fold change vs veh, SNHG1 /// SNORD22 /// SNORD25 /// SNORD26 /// SNORD27 /// SNORD28 /// SNORD29 /// SNORD31 / Fold change (Aza/veh), C12orf56 (ProbeSet 11735607_a_at) / Fold change (ACY-1035/veh), C12orf56 (ProbeSet 11735607_a_at) / Fold change (Aza/veh), FGFR1OP (ProbeSet 11751329_s_at) / Fold change (ACY-1035/veh), FGFR1OP (ProbeSet 11751329_s_at) / Fold change (Aza/veh), VPS36 (ProbeSet 11739960_a_at) / Fold change (ACY-1035/veh), VPS36 (ProbeSet 11739960_a_at) / RFU SYPL1 (11715823_x_at) / Fold change /veh SYPL1 (11715823_x_at) / RFU IGFBP7 (11715501_s_at) / Fold change /veh IGFBP7 (11715501_s_at) / RFU REEP3 (11722064_at) / Fold change /veh REEP3 (11722064_at) / RFU IGLL1 (11728026_x_at) / Fold change /veh IGLL1 (11728026_x_at): dose or concentration left out as unconfirmed
Settings: MV-4-11 cells, 48 hours

Nc1ncn([C@@H]2O[C@H](CO)[C@@H](O)[C@H]2O)c(=O)n1 [azacitidine]
Fold change /veh IGLL1 (11728026_x_at): 0.66
